For one experiment, the system named is U251 (glioma) cells. As to the kind of experiment: Anti-cancer screen (MTT), U251. It is filed as cell-based. To be noted: Homo sapiens, U-251, U251, 48 hours, MTT; for GI50: read-out: Cell growth inhibition U251 (Glioma) GI50; for LC50 (concentration giving 50% net cell kill relative to the time-zero cell count): read-out: Cell growth inhibition U251 (Glioma) LC50; for IC (TGI): read-out: Cell growth inhibition U251 (Glioma) TGI. The procedure: (§1) Experimental drugs were screened for anti-cancer activity in three cell lines using five concentrations for each compound. The cell lines —HCT 116 (colon), NCIH460 (lung) and U251 (glioma) were maintained in DMEM containing 10% fetal bovine serum. 96-well microtiter plates are inoculated with cells in 100 μL of cell suspension (5×10^4 cells/mL) for 24 hours at 37° C., 5% CO2, 95% air and 100% relative humidity. A separate plate with these cell lines is also inoculated to determine cell viability before the addition of the compounds (T0).
(§2) Following 24-hours incubation, test compounds were added to the 96 well plates. Each plate contains one of the above cell lines and the following samples in triplicate: five different dilutions (0.01, 0.1, 1, 10 and 100 μM) of four test compounds, appropriate dilutions of a cytotoxic standard and growth medium (untreated) wells. Test compounds were dissolved in DMSO to prepare 20 mM stock solutions on the day of drug addition and serial dilutions were carried out in complete growth medium at 2× strength such that 100 μL added to wells gave final concentrations (0.01, 0.1, 1, 10 and 100 μM) in the well. SAHA was used as standard drug in these experiments.
(§3) For T0 measurement, 24 hours after seeding the cells, 20 μL of 3-(4,5-dimethyl-2-thiazolyl)-2,5-diphenyl-2H-tetrazolium (MTT) solution per well was added to the ‘T0’ plate and incubated for 3 hours at 37° C. in a CO2 incubator. The plate containing cells and test compounds was treated similarly after 48 hours of incubation. After 3 hours of MTT addition, well contents were aspirated carefully followed by addition of 150 μL DMSO per well. Plates were agitated to ensure dissolution of the formazan crystals in DMSO and absorbance was read at 570 nm (A570).
(§4) (Mosmann T. Rapid colorimetric assay for cellular growth and survival: application to proliferation and cytotoxicity assays. J Immunol Methods 1983; 65(1-2): 55-63; Anne Monks et al. Feasibility of high-flux anticancer drug screen using a diverse panel of cultured human tumor cell lines”. JNCI, Vol. 83, No. 11, 1991).

In experiment [1] the test system is HDAC (Mouse Liver Extract). The experiment can be described thus: HDAC inhibition assay using Boc-Lys(Ac)-AMC substrate. The class given is biochemical. To be noted: mouse liver enzyme. How it is done:
Inhibition of HDAC has been implicated to modulate transcription and to induce apoptosis or differentiation in cancer cells. The fluorometric assay provides a fast and fluorescence based method that eliminates radioactivity, extractions or chromatography, as used in traditional assays. The assay is based on two steps. First, the HDAC fluorometric substrate, which comprises an acetylated lysine side chain, is incubated with a sample containing HDAC activity (Mouse Liver Extract). Deacetylation of the substrate sensitizes the substrate, in the second step; treatment with the Trypsin stop solution produces a fluorophore that can be easily analyzed using fluorescence plate reader. Assay was done in 96-well black microplate and total volume of the assay was […]. […] The plate was pre-incubated at 37° C. for 5 minutes. […] The plate was incubated at 37° C. for 30 min. The reaction was stopped by adding 100 μL, of Trypsin stop solution and incubating at 37° C. for 15-30 min. Measuring the fluorescence at excitation wavelength of 360 nm and emission wavelength of 460 nm monitored the release of AMC. Buffer alone and substrate alone served as blank. […] (Dennis Wegener et al, Anal. Biochem, 321, 2003, 202-208).

The subject of experiment [2] is NCIH460, HCT116 and U251 cells. The experiment can be described thus: Anti-cancer screen, mean GI50 over cell lines. It is filed as cell-based. To be noted: mean over cell lines; read-out: Cell growth inhibition Mean GI50. How it is done: as §1, §2, §3, §4
Another experiment concerns NCIH460 (lung) cells. As to the kind of experiment: Anti-cancer screen (MTT), NCIH460. It is filed as cell-based. To be noted: Homo sapiens, NCI-H460, NCIH460, 48 hours, MTT; for GI50: read-out: Cell growth inhibition NCIH460 (Lung) GI50; for LC50: read-out: Cell growth inhibition NCIH460 (Lung) LC50; for IC (TGI): read-out: Cell growth inhibition NCIH460 (Lung) TGI. How it is done: as §1, §2, §3, §4

The next experiment has as its system HCT 116 (colon) cells. As to the kind of experiment: Anti-cancer screen (MTT), HCT 116. It is filed as cell-based. To be noted: Homo sapiens, HCT-116, HCT116, 48 hours, MTT; for GI50: read-out: Cell growth inhibition HCT116 (Colon) GI50; for CC50: read-out: Cell growth inhibition HCT116 (Colon) LC50; for IC (TGI): read-out: Cell growth inhibition HCT116 (Colon) TGI. The procedure: as §1, §2, §3, §4

Bounds are passed on as bounds.

With `COc1cc(/C=C(/C(=O)NCc2ccc(C(=O)Nc3ccccc3N)cc2)c2ccc(F)cc2)cc(OC)c1OC` [Compound 8, N-(2-Aminophenyl)-4-((3-(3,4,5-trimethoxyphenyl)-2-(4-fluorophenyl)acrylamido)methyl)benzamide], in the experiment on U251 (glioma) cells, the 50% growth inhibitory concentration (GI50) (in general, the concentration at which growth is held to half of that of the control) was determined as 67 µM; the LC50 (concentration giving 50% net cell kill relative to the time-zero cell count) was greater than 100 µM; the IC (TGI) worked out at 84.5 µM. In addition, in experiment [1], the “HDAC inhibition % (1 μM)” value is given as 21.4% and the “HDAC inhibition % (10 μM)” value worked out at 26.4%. In addition, in experiment [2], the GI50 was determined as 60.2 µM. For the same compound, in the experiment on NCIH460 (lung) cells, the GI50 was 89 µM; the LC50 (in general, the concentration that kills 50% of the test population) was greater than 100 µM; the IC (TGI) is greater than 100 µM. In the experiment with HCT 116 (colon) cells, the GI50 stood at 24.5 µM, the CC50 was greater than 100 µM and the IC (TGI) was 82.5 µM.
In the case of `Nc1ccccc1NC(=O)c1ccc(CNC(=O)/C(=C/c2ccc(F)cc2Cl)c2ccccc2)cc1` [Compound 9, N-(2-Aminophenyl)-4-((3-(2-chloro-4-fluorophenyl)-2-(phenyl)acrylamido)methyl)benzamide], in the experiment on U251 (glioma) cells, the GI50 was determined as 60 µM, the LC50 (concentration giving 50% net cell kill relative to the time-zero cell count) is greater than 100 µM and the IC (TGI) turned out to be 79 µM. In experiment [1], the “HDAC inhibition % (1 μM)” value was 12.1% and the “HDAC inhibition % (10 μM)” value was found to be 32.1%. Also, in experiment [2], the GI50 stood at 69.3 µM. Also, in the experiment with NCIH460 (lung) cells, the GI50 came to 90 µM, the LC50 is greater than 100 µM and the IC (TGI) was greater than 100 µM. Further, in the experiment on HCT 116 (colon) cells, the GI50 was 58 µM, the CC50 was greater than 100 µM and the IC (TGI) stood at 94 µM.
For `Nc1ccccc1NC(=O)c1ccc(CNC(=O)/C(=C/c2ccc(F)cc2)c2ccccc2)cc1` [Compound 10, N-(2-Aminophenyl)-4-((3-(4-fluorophenyl)-2-(phenyl)acrylamido)methyl)benzamide], in the experiment with U251 (glioma) cells, the GI50 was found to be 27 µM, the LC50 (concentration giving 50% net cell kill relative to the time-zero cell count) turned out to be 92 µM and the IC (TGI) worked out at 57 µM. Moreover, in experiment [1], the “HDAC inhibition % (1 μM)” value worked out at 14.5% and the “HDAC inhibition % (10 μM)” value came out at 32.1%. The GI50 in experiment [2] came to 16.8 µM. Also, in the experiment on NCIH460 (lung) cells, the GI50 was found to be 19.5 µM, the LC50 was determined as 85 µM and the IC (TGI) was found to be 49 µM. Besides, in the experiment on HCT 116 (colon) cells, the 50% growth inhibitory concentration (GI50) is 3.9 µM, the CC50 came to 56 µM and the IC (TGI) turned out to be 9 µM.
For `COc1ccc(/C=C(/C(=O)NCc2ccc(C(=O)Nc3ccccc3N)cc2)c2ccc(F)cc2)cc1` [Compound 11, N-(2-Aminophenyl)-4-((3-(4-methoxyphenyl)-2-(4-fluorophenyl)acrylamido)methyl)benzamide], in the experiment with U251 (glioma) cells, the GI50 was 26.1 µM, the LC50 (concentration giving 50% net cell kill relative to the time-zero cell count) amounted to 86 µM and the IC (TGI) was found to be 53 µM. Further, in experiment [1], the “HDAC inhibition % (1 μM)” value stood at 9.7% and the “HDAC inhibition % (10 μM)” value worked out at 24.6%. In addition, in experiment [2], the GI50 worked out at 13 µM. In addition, in the experiment with NCIH460 (lung) cells, the GI50 came out at 8 µM, the LC50 amounted to 83 µM and the IC (TGI) is 41.2 µM. Moreover, in the experiment on HCT 116 (colon) cells, the concentration for 50% growth inhibition (GI50) came out at 5 µM, the CC50 was 68.5 µM and the IC (TGI) stood at 12.5 µM.
For `Nc1ccccc1NC(=O)c1ccc(CNC(=O)/C(=C/c2ccccc2)c2ccccc2)cc1` [Compound 12, N-(2-Aminophenyl)-4-((3-phenyl-2-phenylacrylamido)methyl)benzamide], in the experiment on U251 (glioma) cells, the GI50 came to 18 µM, the LC50 (concentration giving 50% net cell kill relative to the time-zero cell count) was determined as 82 µM and the IC (TGI) amounted to 48.5 µM. Besides, in experiment [1], the “HDAC inhibition % (1 μM)” value is listed as 13.6% and the “HDAC inhibition % (10 μM)” value turned out to be 29.8%. Also, the GI50 in experiment [2] was found to be 18.4 µM. For the same compound, in the experiment with NCIH460 (lung) cells, the GI50 amounted to 32 µM, the LC50 worked out at 87 µM and the IC (TGI) was 60 µM. Also, in the experiment with HCT 116 (colon) cells, the GI50 was 5.2 µM, the CC50 was determined as 76.2 µM and the IC (TGI) came out at 37 µM.
Consider `Nc1ccccc1NC(=O)c1ccc(CNC(=O)/C(=C/c2c(F)cc(F)cc2F)c2ccc(F)cc2)cc1` [Compound 13, N-(2-Aminophenyl)-4-((3-(2,4,6-trifluorophenyl)-2-(4-fluorophenyl)acrylamido)methyl)benzamide], for which, in the experiment with U251 (glioma) cells, the concentration for 50% growth inhibition (GI50) was 3.4 µM, the LC50 (concentration giving 50% net cell kill relative to the time-zero cell count) is 48 µM and the IC (TGI) worked out at 8 µM. In experiment [1], the “HDAC inhibition % (1 μM)” value was determined as 9.4% and the “HDAC inhibition % (10 μM)” value worked out at 18.2%. For the same compound, in experiment [2], the GI50 was determined as 15.4 µM. In addition, in the experiment on NCIH460 (lung) cells, the GI50 was 34 µM, the LC50 is 93 µM and the IC (TGI) stood at 66 µM. For the same compound, in the experiment on HCT 116 (colon) cells, the GI50 was determined as 8.9 µM, the CC50 worked out at 90 µM and the IC (TGI) was found to be 50 µM.
On to `CSc1ccc(/C=C(/C(=O)NCc2ccc(C(=O)Nc3ccccc3N)cc2)c2cccs2)cc1` [Compound 18, N-(2-Aminophenyl)-4-((3-(4-methylthiophenyl)-2-(thiophen-2-yl)acrylamido)methyl)benzamide], for which, in the experiment with U251 (glioma) cells, the 50% growth inhibitory concentration (GI50) was 2.2 µM, the LC50 (concentration giving 50% net cell kill relative to the time-zero cell count) was 7 µM and the IC (TGI) worked out at 4 µM. In experiment [1], the “HDAC inhibition % (1 μM)” value worked out at 28.7% and the “HDAC inhibition % (10 μM)” value is 36.7%. Moreover, the GI50 in experiment [2] stood at 3.8 µM. In addition, in the experiment with NCIH460 (lung) cells, the GI50 amounted to 4.1 µM, the median lethal concentration (LC50) is greater than 100 µM and the IC (TGI) came out at 20 µM. Moreover, in the experiment with HCT 116 (colon) cells, the concentration for 50% growth inhibition (GI50) amounted to 5 µM, the CC50 is greater than 100 µM and the IC (TGI) is 20 µM.
In the case of `COc1cc(/C=C(/C(=O)NCc2ccc(C(=O)Nc3ccccc3N)cc2)c2ccc(F)cc2)ccc1F` [Compound 20, N-(2-Aminophenyl)-4-((3-(4-fluoro-3-methoxyphenyl)-2-(4-fluorophenyl)acrylamido)methyl)benzamide], in the experiment on U251 (glioma) cells, the GI50 was 1.7 µM and the IC (TGI) turned out to be 3.5 µM. In addition, in experiment [1], the “HDAC inhibition % (1 μM)” value is reported as 45.1% and the “HDAC inhibition % (10 μM)” value was found to be 46.2%. Besides, the concentration for 50% growth inhibition (GI50) in experiment [2] was found to be 3.2 µM. Further, in the experiment on NCIH460 (lung) cells, the concentration for 50% growth inhibition (GI50) was 7.5 µM and the IC (TGI) came to 18 µM. For the same compound, in the experiment with HCT 116 (colon) cells, the GI50 is 0.3 µM, the CC50 is 80 µM and the IC (TGI) was 20 µM.
On to `CSc1ccc(/C=C(/C(=O)NCc2ccc(C(=O)Nc3ccccc3N)cc2)c2ccc(C(F)(F)F)cc2)cc1` [Compound 21, N-(2-Aminophenyl)-4-((3-(4-methylthiophenyl)-2-(4-trifluoromethylphenyl)acrylamido)methyl)benzamide], for which, in the experiment with U251 (glioma) cells, the GI50 is 52 µM, the LC50 (concentration giving 50% net cell kill relative to the time-zero cell count) came out at 96 µM and the IC (TGI) amounted to 65 µM. Further, in experiment [1], the “HDAC inhibition % (1 μM)” value stood at 7.0% and the “HDAC inhibition % (10 μM)” value was 24.8%. In addition, the 50% growth inhibitory concentration (GI50) in experiment [2] was determined as 39.7 µM. In addition, in the experiment with NCIH460 (lung) cells, the GI50 worked out at 32 µM, the LC50 came out at 78 µM and the IC (TGI) was determined as 46 µM. In the experiment with HCT 116 (colon) cells, the GI50 is 35 µM, the CC50 is 82 µM and the IC (TGI) amounted to 56 µM.

Values taken from US8476255B2, “Histone deacetylase inhibitors” (Orchid Chemicals & Pharmaceuticals Limited, priority 2007, dated 2013).
